Experimental data: US10351596B2, “γ-AA-peptide STAT3/DNA inhibitors and methods of use” (H. Lee Moffitt Cancer Center and Research Institute, Inc., priority 2014, dated 2019)

Tested on: STAT3 phosphorylation and STAT3 regulated genes (survivin, cyclin D1)
Test: Western immunoblotting of MDA-MB-468 cells (P-STAT3, survivin, cyclin D1)
Assay type: cell-based, human
Conditions: 100 μM overnight, Western blot
Method: To assess the ability of lead γ-AA peptides to modulate the expression of STAT3 regulated genes, Western immunoblotting was carried out to determine the effect of γ-AA peptides on the expression levels of survivin and cyclin D1. Briefly, Western blots were prepared using cells that were harvested and lysed for 30 min on ice with occasional vortexing in 150 mM Hepes, pH 7.5, 150 mM NaCl, 1 mM EDTA, 0.5% NP-40, 10% glycerol, 5 mM NaF, 1 mM DTT, 1 mM PMSF, 2 mM Na3VO4, and 5 μg/ml leupeptin. Proteins readings were done using the Bradford protein assay, and equal amounts of protein for each sample were loaded into the wells of SDS-PAGE gels. After separation, proteins were transferred to nitrocellulose and Western blots were performed as previously described (Zhang, et al., A Novel Inhibitor of STAT3 Homodimerization Selectively Suppresses STAT3 Activity and Malignant Transformation. Cancer Research 2013, 73, 1922-1933).

For S3I-1757, the “STAT3 phosphorylation (P-STAT3)” value was “blocked STAT3 phosphorylation”.
